{"source": "patent US20070275366A1", "about": "“Regulation of Sperm Function” (priority 2003, published 2007)", "molecules": {"B1": {"name": "vitronectin: extracellular matrix protein (250 μg/ml, Sigma) (protein, UniProt P04004 20-478, looked up)", "Vitronectin": "DQESCKGRCTEGFNVDKKCQCDELCSYYQSCCTDYTAECKPQVTRGDVFTMPEDEYTVYDDGEEKNNATVHEQVGGPSLTSDLQAQSKGNPEQTPVLKPEEEAPAPEVGASKPEGIDSRPETLHPGRPQPPAEEELCSGKPFDAFTDLKNGSLFAFRGQYCYELDEKAVRPGYPKLIRDVWGIEGPIDAAFTRINCQGKTYLFKGSQYWRFEDGVLDPDYPRNISDGFDGIPDNVDAALALPAHSYSGRERVYFFKGKQYWEYQFQHQPSQEECEGSSLSAVFEHFAMMQRDSWEDIFELLFWGRTSAGTRQPQFISRDWHGVPGQVDAAMAGRIYISGMAPRPSLAKKQRFRHRNRKGYRSQRGHSRGRNQNSRRPSRATWLSLFSSEESNLGANNYDDYRMDWLVPATCEPIQSVFFFSGDKYYRVNLRTRRVDTVDPPYPRSIAQYWLGCPAPGHL"}}, "key": {"[1]": {"tested_on": "frozen-thawed spermatozoa (Bull semen samples)", "experiment": "Sperm motility by microscopy on heated stage (percentage of motile spermatozoa with linear progressive movement)", "type": "cell-based", "conditions": "for increase in sperm motility compared to fibronectin alone / increase in sperm motility compared to the RGD plus fibronectin sample: Angiotensin II 10^−9 moles/L added to fibronectin plus RGDS sample", "procedure": "Each sperm sample was packed and frozen in 0.25 ml plastic straws. The frozen spermatozoa straw (0.25 ml) was rapidly thawed by plunging it into a 37° C. water bath. When the sample was thawed, the straw was dried with a tissue, kept horizontal and cut both ends into a pre-warmed TALP medium.\nSpermatozoa were washed twice by TALP medium and centrifugation at 600×g for 10 minutes, then re-suspended with TALP pre-warmed to 37° C. The motility of the frozen-thawed spermatozoa was assessed at 37° C. using thermal plates. Sperm motility and morphology was estimated by microscopical observation on a warm 37° C. stage. Semen (10 μl) was covered by a cover glass (18 mm×18 mm) and at least 5 microscopic fields were examined. Motility was expressed as the percentage of motile spermatozoa with linear progressive movement in the sample (see Vinson, G. P., Puddefoot, J. R., Ho, M. M., Barker, S., Mehta, J., Saridogan, E. and Djahanbakhch, O. (1995). “Type 1 angiotensin II (AT1) receptors in sperm”, Journal Of Endocrinology, 144, 369-378). The prepared sperm sample were incubated with additives at 37° C. in a water bath as described in each example, and assayed for motility as before.\nAll incubations were carried out at 37° C., using water bath and heated stage. Semen samples (10 μl) were applied to preheated (37° C.) slides and placed on the microscope heated stage and examined. The number of motile sperm were counted in the control sample at zero time, and in the treated samples after the incubation times indicated."}, "[2]": {"tested_on": "sperm from volunteers and patients attending fertility clinics", "conditions": "background statement, cited from earlier work"}, "bull spermatozoa": {"tested_on": "bull spermatozoa", "experiment": "Chlortetracycline (CTC) fluorescence assay of capacitation state", "type": "cell-based", "conditions": "Example 6", "text": "An alternative method of assessing capacitation is by using the CTC assay (DasGupta S, Mills C L, Fraser L R. Ca(2+)-related changes in the capacitation state of human spermatozoa assessed by a chlortetracycline fluorescence assay. J Reprod Fertil. 1993 September; 99(1):135-43.; Fraser L R, Herod J E. Expression of capacitation-dependent changes in chlortetracycline fluorescence patterns in mouse spermatozoa requires a suitable glycolysable substrate. J Reprod Fertil. 1990 March; 88(2):611-21). In this method, used in Example 6 below, patterns of staining distinguish non-capacitated, capacitated and acrosome reacted sperm. Chlortetracycline (CTC) solution: CTC (750 μM CTC in Tris (20 mM)-NaCl (130 mM), DL-cysteine (5 mM), buffer (20 mM Tris/130 mM NaCl, pH 7.8). Spermatozoa samples were obtained from healthy bulls (Semex, UK). All semen samples used in this study had been frozen and thawed. Each sample was packed in 0.25 ml plastic straws. The frozen spermatozoa straw (0.25 ml) was rapidly thawed by plunging it into a 37° C. water bath. When the sample was thawed, the straw was dried with a tissue, kept horizontal and cut both ends into a pre-warmed TALP medium. Spermatozoa were washed twice by TALP medium and centrifugation at 600 g for 10 minutes, then re-suspended with TALP pre-warmed to 37° C. Spermatozoa were incubated without additives, or with either angiotensin II (10^−9 moles per litre), fibronectin (5-50 μg/ml), or with both. Treated samples (45 μl) were aliquoted into foil wrapped eppendorf tubes with CTC solution (45 μl) and fixed with 12.5% paraformaldehyde, prior to viewing by […]. Three patterns of chlortetracycline fluorescent staining may be observed on bull spermatozoa: F (uncapacitated)-pattern, bright fluorescence was detected over the whole region of the sperm head; B (capacitated)-pattern, fluorescence was detected on the sperm head but not on the postacrosomal region; AR (acrosome-reacted)-pattern, weak fluorescence was observed over the sperm head, and a bright band was sometimes observed in the equatorial region."}, "sperm": {"tested_on": "sperm", "experiment": "Sperm viability, carboxyfluorescein diacetate / propidium iodide live-dead stain", "type": "cell-based", "conditions": "Example 7; fibronectin 5 μg/ml, stored at room temperature, after 3 days; untreated control 75% to 18%", "procedure": "Stock solutions: carboxyfluorescein diacetate (0.46 mg/ml in dimethyl sulphoxide), propidium iodide (0.5 mg/ml isotonic saline), formaldehyde (10 μl formalin to 150 μl distilled water). Fluorescence stain: 50 μl carboxyfluorescein and 50 μl of propidium iodide to 2 ml sperm extender, plus 100 μl formaldehyde.\nSemen were diluted with stain (1:1) dilution and incubated at room temperature […] for 15 min. Samples washed with extender, and examined for live and dead sperm."}, "[3]": {"conditions": "Example 3, fibronectin 2 μg/l added to sperm pre-incubated with RGDS, incubation of 5-10 minutes"}}, "data": [{"molecule": "Angiotensin II (DRVYIHPF; Angiotensin-2; UniProt P01019 25-32, looked up) [peptide used as capacitating agent]", "values": [{"measurement": "increase in sperm motility compared to fibronectin alone", "setting": "[1]; Example 1", "value": 71, "unit": "%"}, {"measurement": "increase in sperm motility compared to the RGD plus fibronectin sample", "setting": "[1]; Example 1", "value": 62, "unit": "%"}, {"measurement": "increase in sperm motility compared to fibronectin alone", "setting": "[1]; Example 1, 10 minutes", "value": 43, "unit": "%"}, {"measurement": "increase in sperm motility compared to the RGD plus fibronectin sample", "setting": "[1]; Example 1, 10 minutes", "value": 34, "unit": "%"}, {"measurement": "increase in sperm motility compared to fibronectin alone", "setting": "[1]; Example 1, 20 minutes", "value": 64, "unit": "%"}, {"measurement": "increase in sperm motility compared to the RGD plus fibronectin sample", "setting": "[1]; Example 1, 20 minutes", "value": 55, "unit": "%"}, {"measurement": "sperm motility", "setting": "[1]; Example 2, Angiotensin II 10^−9 moles/L added to fibronectin (2 μg/l) sample, 10 minutes", "value": 64, "unit": "%"}, {"measurement": "sperm motility", "setting": "[1]; Example 2, Angiotensin II 10^−9 moles/L added to fibronectin (2 μg/l) sample, 20 minutes", "value": 62, "unit": "%"}, {"measurement": "sperm motility", "setting": "[1]; Example 2, Angiotensin II 10^−9 moles/L added to fibronectin (2 μg/l) sample, 3040 minutes", "value": 62, "unit": "%"}, {"measurement": "sperm motility", "setting": "[1]; Example 3, Angiotensin II 10^−9 moles/L added to fibronectin+RGDS sample, 10 minutes", "value": 43, "unit": "%"}, {"measurement": "sperm motility", "setting": "[1]; Example 3, Angiotensin II 10^−9 moles/L added to fibronectin+RGDS sample, 20 minutes", "value": 54, "unit": "%"}, {"measurement": "sperm motility", "setting": "[1]; Example 3, Angiotensin II 10^−9 moles/L added to fibronectin+RGDS sample, 3040 minutes", "value": 54, "unit": "%"}, {"measurement": "change in sperm motility", "setting": "[1]; Example 4, Angiotensin II 10^−9 moles/L added to vitronectin sample, 5 to 35 minutes", "value": "significant increase"}, {"measurement": "change in sperm motility", "setting": "[1]; Example 5, Angiotensin II 10^−9 moles/L added to laminin sample, 10 to 40 minutes", "value": "significant increase"}, {"measurement": "effect on percentage of motile sperm and linear velocity", "setting": "[2]", "value": "may increase both the percentage of motile sperm and their linear velocity"}, {"measurement": "capacitated sperm (B pattern)", "setting": "bull spermatozoa; angiotensin II only (10^−9 moles per litre), 60 min incubation", "value": 45, "unit": "%"}, {"measurement": "uncapacitated sperm (F pattern)", "setting": "bull spermatozoa; angiotensin II only (10^−9 moles per litre), 60 min incubation, control about 60%, 55% by 30 min", "value": "~18", "unit": "%"}]}, {"molecule": "laminin: extracellular matrix protein (250 μg/ml, Sigma)", "values": [{"measurement": "change in total sperm motility", "setting": "[1]; Example 5, laminin 2 μg/l, 10 min, 37° C.", "value": "significant decrease"}]}, {"molecule": "CCCCc1nc(Cl)c(CO)n1Cc1ccc(-c2ccccc2-c2nn[nH]n2)cc1", "note": "[losartan]", "values": [{"measurement": "effect on the action of angiotensin II on the percentage of motile sperm", "setting": "[2]; specific AT1 receptor antagonist", "value": "inhibits the action of angiotensin II on the percentage of motile sperm"}]}, {"molecule": "Arg-Gly-Asp-Ser (RGDS; printed: Arg-Gly-Asp-Ser) [commercially available tetrapeptide used as a source of RGD]", "values": [{"measurement": "decrease in sperm motility", "setting": "[1]; Example 3, pre-incubation with RGDS 5×10^6 moles/L for 5 min, control 62% at time zero", "value": 19, "unit": "%"}]}, {"molecule": "fibronectin", "values": [{"measurement": "sperm motility", "setting": "[1]; Example 1, fibronectin 2 μg/l, incubation of 5-10 minutes, 37° C., control 70% at time zero", "value": 14, "unit": "%"}, {"measurement": "sperm motility", "setting": "[1]; Example 2, fibronectin 2 μg/l, incubation of 5-10 minutes, control 79% at time zero", "value": 8, "unit": "%"}, {"measurement": "decrease of motility compared to the RGD treated sample", "setting": "[1]; [3]", "value": 28, "unit": "%"}, {"measurement": "decrease of motility compared to the control", "setting": "[1]; [3]", "value": 47, "unit": "%"}, {"measurement": "patterns of sperm staining (CTC)", "setting": "bull spermatozoa; fibronectin 5 μg/ml", "value": "very similar to the untreated controls"}, {"measurement": "sperm remaining viable (living sperm)", "setting": "sperm", "value": 48, "unit": "%"}]}, {"molecule": "B1", "values": [{"measurement": "change in total sperm motility", "setting": "[1]; Example 4, vitronectin 2 μg/l, 5 minutes, 37° C.", "value": "highly significant decrease"}]}]}
